The values below come from patent US9199946B2, “Pyrimidinone carboxamide inhibitors of endothelial lipase” (BRISTOL-MYERS SQUIBB COMPANY, priority 2012, dated 2015).

SMILES strings stand for the structures.

The first assay addresses T1, Endothelial lipase (EL) (Homo sapiens, UniProt Q9Y5X9).
T1 construct: HT-1080 cells, which were transformed by RAGE technology (Athersys) to overexpress endogenous EL; endogenous in cells; conditioned medium used as the enzyme source
T1 sequence (Q9Y5X9 21-500): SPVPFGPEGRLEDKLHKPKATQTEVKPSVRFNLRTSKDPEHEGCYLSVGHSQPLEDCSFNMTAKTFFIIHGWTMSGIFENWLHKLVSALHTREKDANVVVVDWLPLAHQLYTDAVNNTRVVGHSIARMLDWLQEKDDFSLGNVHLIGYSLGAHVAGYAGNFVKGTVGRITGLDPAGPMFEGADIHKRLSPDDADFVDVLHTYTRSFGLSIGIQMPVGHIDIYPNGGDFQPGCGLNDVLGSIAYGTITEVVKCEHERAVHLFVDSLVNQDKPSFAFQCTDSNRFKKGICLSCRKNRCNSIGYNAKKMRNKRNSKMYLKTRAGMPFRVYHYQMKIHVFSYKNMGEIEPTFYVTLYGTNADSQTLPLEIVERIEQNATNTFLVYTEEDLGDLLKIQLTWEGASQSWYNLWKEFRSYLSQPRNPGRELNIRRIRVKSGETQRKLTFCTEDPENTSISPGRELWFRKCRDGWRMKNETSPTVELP
Description: Endothelial lipase (EL) enzymatic assay with fluorescent substrate A10070 in DMPG vesicles. In kind it is biochemical. Conditions: conditioned media from HT-1080 cells overexpressing endogenous EL; 20 min preincubation at 37° C.; read-out: EL IC50. Summed up: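 EL activity was followed as a fluorescence rate (488/530 nm, reads every 20 s for 10 min, linear slope) on A10070 doped at 0.05 mole fraction into sonicated DMPG vesicles. Compound was first incubated 20 min at 37 °C, pH 8.0 HEPES/CaCl2 buffer, with conditioned media from EL-overexpressing HT-1080 cells.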
For `Nc1c(C(=O)NC2CCN(c3ncnc4[nH]ncc34)C2)[nH]c(=O)[nH]c1=O` (centres unmarked) [Example 189, N-(1-(1H-pyrazolo[3,4-d]pyrimidin-4-yl)pyrrolidin-3-yl)-5-amino-2,6-dioxo-1,2,3,6-tetrahydropyrimidine-4-carboxamide], the half-inhibitory concentration (IC50) was determined as 0.641 µM.

Regarding `Nc1c(C(=O)NC2CCN(c3nc(Br)nn3Cc3ccccc3)C2)[nH]c(=O)[nH]c1=O` (centres unmarked) [Example 187, 5-amino-N-(1-(1-benzyl-3-bromo-1H 1,2,4-triazol-5-yl)pyrrolidin-3-yl)-2,6 dioxo-1,2,3,6-tetrahydropyrimidine-4 carboxamide], the IC50 worked out at 0.946 µM.

As for `Nc1c(C(=O)N[C@@H]2CCc3ccc(-c4ccccc4)cc32)[nH]c(=O)[nH]c1=O` [Example 138, (R)-5-amino-2,6-dioxo-N-(6-phenyl-2,3-dihydro-1H-inden-1-yl)-1,2,3,6-tetrahydropyrimidine-4-carboxamide], the half-inhibitory concentration (IC50) came to 1.72 µM.

The same assay, now with this note: range observed in the EL assay; read-out: EL IC50 values.
For `CC(C)(C)C1CCC(NC(=O)c2[nH]c(=O)[nH]c(=O)c2N)CC1` (centres unmarked) [Example 44, 5-amino-N-(4-tert-butylcyclohexyl)-2,6-dioxo-1,2,3,6-tetrahydropyrimidine-4-carboxamide], the half-maximal inhibitory concentration (IC50) is ≤ 10 µM.

In the case of `O=C(N[C@H]1CC[C@@H](c2ccccc2)CC1)c1[nH]c(=O)[nH]c(=O)c1NCc1ccc(F)cc1` [Example 205, 5-(4-Fluorobenzylamino)-2,6-dioxo-N-(cis-4-phenylcyclohexyl)-1,2,3,6-tetrahydropyrimidine-4-carboxamide], the IC50 is ≤ 10 µM.

Regarding `Nc1c(C(=O)N[C@H]2CCc3ccc(Br)cc32)[nH]c(=O)[nH]c1=O` [Example 55, (S)-5-amino-N-(6-bromo-2,3-dihydro-1H-inden-1-yl)-2,6-dioxo-1,2,3,6-tetrahydropyrimidine-4-carboxamide], the concentration for half-maximal inhibition (IC50) is ≤ 10 µM.

Consider `Nc1c(C(=O)N[C@@H]2CCc3cc(Br)ccc32)[nH]c(=O)[nH]c1=O` [Example 65, (R)-5-amino-N-(5-bromo-2,3-dihydro-1H-inden-1-yl)-2,6-dioxo-1,2,3,6-tetrahydropyrimidine-4-carboxamide], for which the IC50 is ≤ 10 µM.

Consider `O=C(N[C@@H]1CC[C@@H](C(=O)Nc2cnn(Cc3ccccc3)c2)C1)c1[nH]c(=O)[nH]c(=O)c1O` [Example 295, N-((1R,3R)-3-(1-benzyl-1H-pyrazol-4-ylcarbamoyl)cyclopentyl)-5-hydroxy-2,6-dioxo-1,2,3,6-tetrahydropyrimidine-4-carboxamide], for which the half-maximal inhibitory concentration (IC50) is ≤ 10 µM.

As for `Nc1c(C(=O)N[C@@H]2CC[C@@H](C(=O)N[C@H]3CC[C@@H](c4cccc(C(F)(F)F)c4)CC3)C2)[nH]c(=O)[nH]c1=O` [Example 150, 5-amino-2,6-dioxo-N-((1R,3R)-3-(cis-4-(3-(trifluoromethyl)phenyl)cyclohexylcarbamoyl)cyclopentyl)-1,2,3,6-tetrahydropyrimidine-4-carboxamide], the IC50 is ≤ 10 µM.

As to `COc1ccc2c(c1)[C@H](NC(=O)c1[nH]c(=O)[nH]c(=O)c1O)CCC2` [Example 264, (R)-5-hydroxy-N-(7-methoxy-1,2,3,4-tetrahydronaphthalen-1-yl)-2,6-dioxo-1,2,3,6-tetrahydropyrimidine-4-carboxamide], the 50% inhibitory concentration (IC50) is ≤ 10 µM.

Regarding `O=C(NC1CCCc2c(NS(=O)(=O)c3ccccc3)cccc21)c1[nH]c(=O)[nH]c(=O)c1O` (centres unmarked) [Example 287, 5-hydroxy-2,6-dioxo-N-(5-(phenylsulfonamido)-1,2,3,4-tetrahydronaphthalen-1-yl)-1,2,3,6-tetrahydropyrimidine-4-carboxamide], the IC50 was ≤ 10 µM.

As to `CC(C)CCNc1c(C(=O)N[C@H]2CC[C@@H](c3ccccc3)CC2)[nH]c(=O)[nH]c1=O` [Example 210, 5-(isopentylamino)-2,6-dioxo-N-(cis-4-phenylcyclohexyl)-1,2,3,6-tetrahydropyrimidine-4-carboxamide], the 50% inhibitory concentration (IC50) is ≤ 10 µM.

Turning to `CCNc1c(C(=O)N[C@H]2CC[C@@H](c3ccccc3)CC2)[nH]c(=O)[nH]c1=O` [Example 229, 5-(ethylamino)-2,6-dioxo-N-(cis-4-phenylcyclohexyl)-1,2,3,6-tetrahydropyrimidine-4-carboxamide], the IC50 is ≤ 10 µM.

For `Nc1c(C(=O)N[C@H]2CCc3ccc(OCc4ccccc4)cc32)[nH]c(=O)[nH]c1=O` [Example 90, (S)-5-amino-N-(6-(benzyloxy)-2,3-dihydro-1H-inden-1-yl)-2,6-dioxo-1,2,3,6-tetrahydropyrimidine-4-carboxamide], the half-maximal inhibitory concentration (IC50) was ≤ 10 µM.

Turning to `CCOC(=O)[C@H]1CCC[C@H]1NC(=O)c1[nH]c(=O)[nH]c(=O)c1N` [Example 61, (1S,2R)-ethyl 2-(5-amino-2,6-dioxo-1,2,3,6-tetrahydropyrimidine-4-carboxamido) cyclopentanecarboxylate], the 50% inhibitory concentration (IC50) was ≤ 10 µM.

Regarding `O=C(N[C@H]1CC[C@@H](c2ccccc2)CC1)c1[nH]c(=O)[nH]c(=O)c1NCCO` [Example 217, 5-(2-hydroxyethylamino)-2,6-dioxo-N-(cis-4-phenylcyclohexyl)-1,2,3,6-tetrahydropyrimidine-4-carboxamide], the IC50 was ≤ 10 µM.

Consider `O=C(NC1CCCc2c(CCc3ccccc3)cccc21)c1[nH]c(=O)[nH]c(=O)c1O` (centres unmarked) [Example 284, 5-hydroxy-2,6-dioxo-N-(5-phenethyl-1,2,3,4-tetrahydronaphthalen-1-yl)-1,2,3,6-tetrahydropyrimidine-4-carboxamide], for which the IC50 was ≤ 10 µM.

Take `Nc1c(C(=O)N[C@@H]2CCCc3c(OCC(F)(F)F)cccc32)[nH]c(=O)[nH]c1=O` [Example 36, (R)-5-amino-2,6-dioxo-N-(5-(2,2,2-trifluoroethoxy)-1,2,3,4-tetrahydronaphthalen-1-yl)-1,2,3,6-tetrahydropyrimidine-4-carboxamide]: the IC50 is ≤ 10 µM.

For the compound `Nc1c(C(=O)NC2CCN(c3ncnc4[nH]ncc34)C2)[nH]c(=O)[nH]c1=O` (centres unmarked) [Example 189, N-(1-(1H-pyrazolo[3,4-d]pyrimidin-4-yl)pyrrolidin-3-yl)-5-amino-2,6-dioxo-1,2,3,6-tetrahydropyrimidine-4-carboxamide], the IC50 is ≤ 10 µM.

For the compound `COc1ccc2c(c1)OC(C)CC2NC(=O)c1[nH]c(=O)[nH]c(=O)c1N` (centres unmarked) [Example 17, 5-amino-N-(7-methoxy-2-methylchroman-4-yl)-2,6-dioxo-1,2,3,6-tetrahydropyrimidine-4-carboxamide], the IC50 was ≤ 10 µM.

As to `COc1cccc2c1C[C@H](NC(=O)c1[nH]c(=O)[nH]c(=O)c1N)CC2` [Example 110, (R)-5-amino-N-(8-methoxy-1,2,3,4-tetrahydronaphthalen-2-yl)-2,6-dioxo-1,2,3,6-tetrahydropyrimidine-4-carboxamide], the half-maximal inhibitory concentration (IC50) is ≤ 10 µM.

Regarding `Nc1c(C(=O)N[C@@H]2CCCc3c(OCc4ccccc4)cccc32)[nH]c(=O)[nH]c1=O` [Example 82, (R)-5-amino-N-(5-(benzyloxy)-1,2,3,4-tetrahydronaphthalen-1-yl)-2,6-dioxo-1,2,3,6-tetrahydropyrimidine-4-carboxamide], the concentration for half-maximal inhibition (IC50) was ≤ 10 µM.

`Nc1c(C(=O)N[C@@H]2CCCc3c(Oc4ccccc4)cccc32)[nH]c(=O)[nH]c1=O` [Example 84, (R)-5-amino-2,6-dioxo-N-(5-phenoxy-1,2,3,4-tetrahydronaphthalen-1-yl)-1,2,3,6-tetrahydropyrimidine-4-carboxamide]: the half-inhibitory concentration (IC50) was ≤ 10 µM.

As for `Nc1c(C(=O)NC2CCN(c3nc(Br)nn3Cc3ccccc3)C2)[nH]c(=O)[nH]c1=O` (centres unmarked) [Example 187, 5-amino-N-(1-(1-benzyl-3-bromo-1H 1,2,4-triazol-5-yl)pyrrolidin-3-yl)-2,6 dioxo-1,2,3,6-tetrahydropyrimidine-4 carboxamide], the IC50 is ≤ 10 µM.

Take `Nc1c(C(=O)N[C@H]2CCCc3c(OCc4ccccc4)cccc32)[nH]c(=O)[nH]c1=O` [Example 92, (S)-5-amino-N-(5-(benzyloxy)-1,2,3,4-tetrahydronaphthalen-1-yl)-2,6-dioxo-1,2,3,6-tetrahydropyrimidine-4-carboxamide]: the concentration for half-maximal inhibition (IC50) is ≤ 10 µM.

Take `Nc1c(C(=O)N[C@@H]2CCc3ccc(-c4ccccc4)cc32)[nH]c(=O)[nH]c1=O` [Example 138, (R)-5-amino-2,6-dioxo-N-(6-phenyl-2,3-dihydro-1H-inden-1-yl)-1,2,3,6-tetrahydropyrimidine-4-carboxamide]: the half-inhibitory concentration (IC50) is ≤ 10 µM.

Broadly, the IC50 is the midpoint of a concentration-inhibition curve.
